This experiment concerns the target T1, mouse VISTA (mVISTA) (Mus musculus, UniProt Q9D659).
T1 construct: expressed in transfected cells; host or cells: Human embryonic kidney 293T cells
T1 sequence (Q9D659 33-308): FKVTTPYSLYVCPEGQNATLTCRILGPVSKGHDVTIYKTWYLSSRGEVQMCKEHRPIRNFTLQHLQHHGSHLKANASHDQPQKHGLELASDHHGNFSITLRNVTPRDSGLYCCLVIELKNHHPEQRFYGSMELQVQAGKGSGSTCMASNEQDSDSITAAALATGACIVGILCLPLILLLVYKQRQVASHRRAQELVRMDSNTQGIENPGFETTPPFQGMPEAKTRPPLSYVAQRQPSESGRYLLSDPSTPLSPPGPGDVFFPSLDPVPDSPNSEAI
As to the kind of experiment: Cell-Based Binding High-Content Assay For mVISTA (HC CBA mVISTA). As to conditions: read-out: HC CBA mVISTA IC50. Summed up: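 Read-out: Alexa 647–streptavidin signal imaged on fixed, Hoechst-stained mVISTA-293T cells, with IC50 taken from a four-parameter logistic curve. Compounds competed with 2 nM biotinylated peptide for 30 min at room temperature, tested under both no-wash and wash (1 h compound, media exchange, 1 h) formats.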

Structures are written as SMILES. pIC50: −log10 of the molar value. Starred links: 1 amine or outer side, 2 acyl side, 3 side chain; linkers in the order of their positions; H or OH if unused. Positions of bridges follow the written chain, without caps; N, C: chain ends. Non-standard residues stand in square brackets, D forms with d. Residues, ends and D or L forms follow the SMILES beside them. Phe(3-Me) = Cc1cccc(C[C@H](N)C(=O)O)c1; γGlu = O=C(O)[C@H](CCC(=O)[*:2])N[*:1]; NMeL = CN[C@@H](CC(C)C)C(=O)O; Ahp(2) = CCCCC[C@H](N)C(=O)O; NMeNle = CCCC[C@H](NC)C(=O)O; Tle = CC(C)(C)[C@H](N)C(=O)O; NHexGly = CCCCCCNCC(=O)O; Nle = CCCC[C@H](N)C(=O)O; Aun = NCCCCCCCCCCC(=O)O; AEEA = NCCOCCOCC(=O)O

A word on the pIC50: it is the IC50 on a negative log10 scale, so that one unit is a factor of ten. `CCCCCCN1CC(=O)N[C@@H](Cc2ccc(O)cc2)C(=O)N[C@@H](CCCC)C(=O)N[C@@H](CC(N)=O)C(=O)N[C@@H](CCCNC(=N)N)C(=O)N(C)[C@@H](CCCC)C(=O)N[C@@H](CCCCC)C(=O)N2CCC[C@H]2C(=O)N[C@@H](C(C)(C)C)C(=O)N[C@@H](CO)C(=O)N[C@H](C(=O)NCCOCCOCC(=O)N[C@@H](CCC(=O)NCCOCCOCC(=O)NCCCCCCCCCCC(=O)O)C(=O)O)CSCC(=O)N[C@@H](Cc2cccc(C)c2)C(=O)N[C@@H](Cc2c[nH]c3ccccc23)C(=O)N[C@@H](CC(=O)O)C1=O` [compound 2228] ({CH2CO}-[Phe(3-Me)]WD[NHexGly]Y[Nle]NR[NMeNle][Ahp(2)]P[Tle]SC[AEEA][γGlu][AEEA][Aun]-OH; thioether N-14): the pIC50 was 7.41.
In the case of `CCCCCCN1CC(=O)N[C@@H](Cc2ccc(O)cc2)C(=O)N[C@@H](CCCC)C(=O)N[C@@H](CC(N)=O)C(=O)N[C@@H](CCCNC(=N)N)C(=O)N(C)[C@@H](CC(C)C)C(=O)N[C@@H](CCCCC)C(=O)N2CCC[C@H]2C(=O)N[C@@H](C(C)(C)C)C(=O)N[C@@H](CO)C(=O)N[C@H](C(=O)NCCOCCOCC(=O)N[C@@H](CCC(=O)NCCOCCOCC(=O)NCCCCCCCCCCC(=O)O)C(=O)O)CSCC(=O)N[C@@H](Cc2ccccc2)C(=O)N[C@@H](Cc2c[nH]c3ccccc23)C(=O)N[C@@H](CC(=O)O)C1=O` [compound 2229] ({CH2CO}-FWD[NHexGly]Y[Nle]NR[NMeL][Ahp(2)]P[Tle]SC[AEEA][γGlu][AEEA][Aun]-OH; thioether N-14), the pIC50 is 7.48.
For `CCCCCCN1CC(=O)N[C@@H](Cc2ccc(O)cc2)C(=O)N[C@@H](CC(C)C)C(=O)N[C@@H](CC(N)=O)C(=O)N[C@@H](CCCNC(=N)N)C(=O)N[C@@H](CC(C)C)C(=O)N[C@@H](CCCCC)C(=O)N2CCC[C@H]2C(=O)N[C@@H](C(C)(C)C)C(=O)N[C@@H](CO)C(=O)N[C@H](C(=O)NCCOCCOCC(=O)N[C@@H](CCC(=O)NCCOCCOCC(=O)NCCCCCCCCCCC(=O)O)C(=O)O)CSCC(=O)N[C@@H](Cc2ccccc2)C(=O)N[C@@H](Cc2c[nH]c3ccccc23)C(=O)N[C@@H](CC(=O)O)C1=O` [compound 2230] ({CH2CO}-FWD[NHexGly]YLNRL[Ahp(2)]P[Tle]SC[AEEA][γGlu][AEEA][Aun]-OH; thioether N-14) the value was 7.55; for `CCCCCCN1CC(=O)N[C@@H](Cc2ccc(O)cc2)C(=O)N[C@@H](CC(C)C)C(=O)N[C@@H](CC(N)=O)C(=O)N[C@@H](CCCNC(=N)N)C(=O)N[C@@H](CC(C)C)C(=O)N[C@@H](CCCCC)C(=O)N2CCC[C@H]2C(=O)N[C@@H](C(C)(C)C)C(=O)N[C@@H](C(C)C)C(=O)N[C@H](C(=O)NCCOCCOCC(=O)N[C@@H](CCC(=O)NCCOCCOCC(=O)NCCCCCCCCCCC(=O)O)C(=O)O)CSCC(=O)N[C@@H](Cc2ccccc2)C(=O)N[C@@H](Cc2c[nH]c3ccccc23)C(=O)N[C@@H](CC(=O)O)C1=O` [compound 2231] ({CH2CO}-FWD[NHexGly]YLNRL[Ahp(2)]P[Tle]VC[AEEA][γGlu][AEEA][Aun]-OH; thioether N-14), 7.37.
In the case of `CCCCCCN1CC(=O)N[C@@H](Cc2ccc(O)cc2)C(=O)N[C@@H](CC(C)C)C(=O)N[C@@H](CC(N)=O)C(=O)N[C@@H](CCCNC(=N)N)C(=O)N[C@@H](CC(C)C)C(=O)N[C@@H](CCCCC)C(=O)N2CCC[C@H]2C(=O)N[C@@H](C(C)(C)C)C(=O)N[C@@H](CC(=O)O)C(=O)N[C@H](C(=O)NCCOCCOCC(=O)N[C@@H](CCC(=O)NCCOCCOCC(=O)NCCCCCCCCCCC(=O)O)C(=O)O)CSCC(=O)N[C@@H](Cc2ccccc2)C(=O)N[C@@H](Cc2ccc(O)cc2)C(=O)N[C@@H](CC(=O)O)C1=O` [compound 2232] ({CH2CO}-FYD[NHexGly]YLNRL[Ahp(2)]P[Tle]DC[AEEA][γGlu][AEEA][Aun]-OH; thioether N-14), the pIC50 was 7.89.
Turning to `CCCCCCN1CC(=O)N[C@@H](Cc2ccc(O)cc2)C(=O)N[C@@H](CCCC)C(=O)N[C@@H](CC(N)=O)C(=O)N[C@@H](CCCNC(=N)N)C(=O)N[C@@H](CC(C)C)C(=O)N[C@@H](CCCCC)C(=O)N2CCC[C@H]2C(=O)N[C@@H](C(C)(C)C)C(=O)N[C@@H](CC(=O)O)C(=O)N[C@H](C(=O)NCCOCCOCC(=O)N[C@@H](CCC(=O)NCCOCCOCC(=O)NCCCCCCCCCCC(=O)O)C(=O)O)CSCC(=O)N[C@@H](Cc2ccccc2)C(=O)N[C@@H](Cc2ccc(O)cc2)C(=O)N[C@@H](CC(=O)O)C1=O` [compound 2233] ({CH2CO}-FYD[NHexGly]Y[Nle]NRL[Ahp(2)]P[Tle]DC[AEEA][γGlu][AEEA][Aun]-OH; thioether N-14), the pIC50 is 7.54.
With `CCCCCCN1CC(=O)N[C@@H](Cc2ccc(O)cc2)C(=O)N[C@@H](CCCC)C(=O)N[C@@H](CC(N)=O)C(=O)N[C@@H](CCCNC(=N)N)C(=O)N[C@@H](CC(C)C)C(=O)N[C@@H](CCCCC)C(=O)N2CCC[C@H]2C(=O)N[C@@H](C(C)(C)C)C(=O)N[C@@H](C(C)C)C(=O)N[C@H](C(=O)NCCOCCOCC(=O)N[C@@H](CCC(=O)NCCOCCOCC(=O)NCCCCCCCCCCC(=O)O)C(=O)O)CSCC(=O)N[C@@H](Cc2ccccc2)C(=O)N[C@@H](Cc2ccc(O)cc2)C(=O)N[C@@H](CC(=O)O)C1=O` [compound 2234] ({CH2CO}-FYD[NHexGly]Y[Nle]NRL[Ahp(2)]P[Tle]VC[AEEA][γGlu][AEEA][Aun]-OH; thioether N-14), the pIC50 is 7.49.
Turning to `CCCCCCN1CC(=O)N[C@@H](Cc2ccc(O)cc2)C(=O)N[C@@H](CC(C)C)C(=O)N[C@@H](CC(N)=O)C(=O)N[C@@H](CCCNC(=N)N)C(=O)N[C@@H](CC(C)C)C(=O)N[C@@H](CCCCC)C(=O)N2CCC[C@H]2C(=O)N[C@@H](C(C)(C)C)C(=O)N[C@@H](CO)C(=O)N[C@H](C(=O)NCCOCCOCC(=O)N[C@@H](CCC(=O)NCCOCCOCC(=O)NCCCCCCCCCCC(=O)O)C(=O)O)CSCC(=O)N[C@@H](Cc2ccccc2)C(=O)N[C@@H](Cc2ccc(O)cc2)C(=O)N[C@@H](CC(=O)O)C1=O` [compound 2235] ({CH2CO}-FYD[NHexGly]YLNRL[Ahp(2)]P[Tle]SC[AEEA][γGlu][AEEA][Aun]-OH; thioether N-14), the pIC50 is 7.82.
Consider `CCCCCCN1CC(=O)N[C@@H](Cc2ccc(O)cc2)C(=O)N[C@@H](CC(C)C)C(=O)N[C@@H](CC(N)=O)C(=O)N[C@@H](CCCNC(=N)N)C(=O)N[C@@H](CC(C)C)C(=O)N[C@@H](CCCCC)C(=O)N2CCC[C@H]2C(=O)N[C@@H](C(C)(C)C)C(=O)N[C@@H](CC(=O)O)C(=O)N[C@H](C(=O)NCCOCCOCC(=O)N[C@@H](CCC(=O)NCCOCCOCC(=O)NCCCCCCCCCCC(=O)O)C(=O)O)CSCC(=O)N[C@@H](Cc2ccccc2)C(=O)N[C@@H](Cc2c[nH]c3ccccc23)C(=O)N[C@@H](CC(=O)O)C1=O` [compound 2236] ({CH2CO}-FWD[NHexGly]YLNRL[Ahp(2)]P[Tle]DC[AEEA][γGlu][AEEA][Aun]-OH; thioether N-14), for which the pIC50 was 7.63.
Consider `CCCCCCN1CC(=O)N[C@@H](Cc2ccc(O)cc2)C(=O)N[C@@H](CCCC)C(=O)N[C@@H](CC(N)=O)C(=O)N[C@@H](CCCNC(=N)N)C(=O)N[C@@H](CC(C)C)C(=O)N[C@@H](CCCCC)C(=O)N2CCC[C@H]2C(=O)N[C@@H](C(C)(C)C)C(=O)N[C@@H](CC(=O)O)C(=O)N[C@H](C(=O)NCCOCCOCC(=O)N[C@@H](CCC(=O)NCCOCCOCC(=O)NCCCCCCCCCCC(=O)O)C(=O)O)CSCC(=O)N[C@@H](Cc2ccccc2)C(=O)N[C@@H](Cc2c[nH]c3ccccc23)C(=O)N[C@@H](CC(=O)O)C1=O` [compound 2237] ({CH2CO}-FWD[NHexGly]Y[Nle]NRL[Ahp(2)]P[Tle]DC[AEEA][γGlu][AEEA][Aun]-OH; thioether N-14), for which the pIC50 is 7.44.
As to `CCCCCCN1CC(=O)N[C@@H](Cc2ccc(O)cc2)C(=O)N[C@@H](CCCC)C(=O)N[C@@H](CC(N)=O)C(=O)N[C@@H](CCCNC(=N)N)C(=O)N[C@@H](CC(C)C)C(=O)N[C@@H](CCCCC)C(=O)N2CCC[C@H]2C(=O)N[C@@H](C(C)(C)C)C(=O)N[C@@H](CO)C(=O)N[C@H](C(=O)NCCOCCOCC(=O)N[C@@H](CCC(=O)NCCOCCOCC(=O)NCCCCCCCCCCC(=O)O)C(=O)O)CSCC(=O)N[C@@H](Cc2ccccc2)C(=O)N[C@@H](Cc2ccc(O)cc2)C(=O)N[C@@H](CC(=O)O)C1=O` [compound 2238] ({CH2CO}-FYD[NHexGly]Y[Nle]NRL[Ahp(2)]P[Tle]SC[AEEA][γGlu][AEEA][Aun]-OH; thioether N-14), the pIC50 is 7.42.
As for `CCCCCCN1CC(=O)N[C@@H](Cc2ccc(O)cc2)C(=O)N[C@@H](CCCC)C(=O)N[C@@H](CC(N)=O)C(=O)N[C@@H](CCCNC(=N)N)C(=O)N(C)[C@@H](CCCC)C(=O)N[C@@H](CCCCC)C(=O)N2CCC[C@H]2C(=O)N[C@@H](C(C)(C)C)C(=O)N[C@@H](C(C)C)C(=O)N[C@H](C(=O)NCCOCCOCC(=O)N[C@@H](CCC(=O)NCCOCCOCC(=O)NCCCCCCCCCCC(=O)O)C(=O)O)CSCC(=O)N[C@@H](Cc2ccccc2)C(=O)N[C@@H](Cc2c[nH]c3ccccc23)C(=O)N[C@@H](CC(=O)O)C1=O` [compound 2239] ({CH2CO}-FWD[NHexGly]Y[Nle]NR[NMeNle][Ahp(2)]P[Tle]VC[AEEA][γGlu][AEEA][Aun]-OH; thioether N-14), the pIC50 is 7.31.
For the compound `CCCCCCN1CC(=O)N[C@@H](Cc2ccc(O)cc2)C(=O)N[C@@H](CC(C)C)C(=O)N[C@@H](CC(N)=O)C(=O)N[C@@H](CCCNC(=N)N)C(=O)N[C@@H](CC(C)C)C(=O)N[C@@H](CCCCC)C(=O)N2CCC[C@H]2C(=O)N[C@@H](C(C)(C)C)C(=O)N[C@@H](C(C)C)C(=O)N[C@H](C(=O)NCCOCCOCC(=O)N[C@@H](CCC(=O)NCCOCCOCC(=O)NCCCCCCCCCCC(=O)O)C(=O)O)CSCC(=O)N[C@@H](Cc2ccccc2)C(=O)N[C@@H](Cc2ccc(O)cc2)C(=O)N[C@@H](CC(=O)O)C1=O` [compound 2240] ({CH2CO}-FYD[NHexGly]YLNRL[Ahp(2)]P[Tle]VC[AEEA][γGlu][AEEA][Aun]-OH; thioether N-14), the negative logarithm of the IC50 (pIC50) was 7.61.

The record behind these values is patent publication US20240218022A1, “ANTI-VISTA MACROCYCLIC PEPTIDES AND COMPOSITIONS” (BRISTOL-MYERS SQUIBB COMPANY, priority 2022, published 2024).
